US12558428B2, “Heterobifunctional compounds and their use in treating disease” (Halda Therapeutics OpCo, Inc., priority 2024, dated 2026)
Read-outs that look alike come from different tables or passages of the source.

What was measured:
Assay type in all cases: cell-based
[1] = tested on: MCF7 cells (ATCC #HTB-22); experiment: Cellular growth inhibition assay, MCF7 cells purchased from ATCC; details: Table 8-A, MCF7 cells purchased from ATCC, six days, CellTiter-Glo, read-out: GI50
How it was run: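 GI50 values come from a four-parameter fit of CellTiter-Glo 2.0 luminescence after six days of compound exposure at 37° C. Seeding density depended on the source: 225 cells/well for ECACC MCF7, 1,500 for ATCC. Medium was RPMI 1640 with 10% FBS and 0.2 U/ml insulin.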

[2] = tested on: T-Rex 293 cells lacking increased expression of estrogen receptor alpha protein; experiment: Cellular growth inhibition assay, T-Rex 293 cells, (−) doxycycline; details: 72 hours
How it was run: (§1)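 Cells of an inducible ERα-expressing T-Rex 293 clone are seeded in charcoal-dextran FBS medium with or without 3 ng/mL doxycycline, then treated after 24 h with compound dilutions (0.5% DMSO) for 72 h. Growth inhibition is measured by CellTiter-Glo luminescence and expressed as GI50.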

[3] = tested on: T-Rex 293 cells having increased expression of estrogen receptor alpha protein; experiment: Cellular growth inhibition assay, T-Rex 293 cells, (+) doxycycline; details: 72 hours
How it was run: as §1

[4] = T-REx-293, 72 h, Table 7-A, T-Rex 293 cells without doxycycline (lacking increased ERα expression), CellTiter-Glo, read-out: (−) Dox GI50
[5] = T-REx-293, 72 h, Table 7-A, T-Rex 293 cells with doxycycline (increased ERα expression), CellTiter-Glo, read-out: (+) Dox GI50
[6] = T-REx-293, 72 h, T-Rex 293 cells without doxycycline, CellTiter-Glo 2.0, read-out: (−) Dox TRex ERa (GI50)
[7] = T-REx-293, 72 h, T-Rex 293 cells with doxycycline-induced ERα expression, CellTiter-Glo 2.0, read-out: (+) Dox TRex ERa (GI50)

Row | SMILES | GI50 ([1]; Homo sapiens, MCF7, 144 h) [nM] | GI50 [1] [nM] | GI50 [2, 4] [nM] | GI50 [3, 5] [nM] | GI50 [2, 6] [nM] | GI50 [3, 7] [nM] | GI50 ([2]; Table 7-A, T-Rex 293 cells without doxycycline (lacking increased ERα expression), CellTiter-Glo, read-out: (−) Dox GI50) [nM] | GI50 ([3]; Table 7-A, T-Rex 293 cells with doxycycline (increased ERα expression), CellTiter-Glo, read-out: (+) Dox GI50) [nM]
1 | Cc1sc2c(c1C)C(c1ccc(N3CCN(CC4CCN(c5ccc([C@H]6c7ccc(O)cc7CC[C@H]6c6ccccc6)cc5)CC4)CC3)cc1)=N[C@@H](Cc1ncco1)c1nnc(C)n1-2 [III-3, (5S,6R)-6-phenyl-5-(4-(4-((4-(4-((S)-2,3,9-trimethyl-6-(oxazol-2-ylmethyl)-6H-thieno[3,2-f][1,2,4]triazolo[4,3-a][1,4]diazepin-4-yl)phenyl)piperazin-1-yl)methyl)piperidin-1-yl)phenyl)-5,6,7,8-tetrahydronaphthalen-2-ol] | 50 to 500 | – | 500 to 2500 | 50 to 500 | – | – | – | –
2 | CC1=C(c2c(F)cc(F)cc2F)[C@H](c2ccc(N3CCN(CC4CCN(c5ccc(C6=N[C@H](C)c7nnc(C)n7-c7sc(C)c(C)c76)cc5)CC4)CC3)cc2)Oc2ccc(O)cc21 [V-24] | > 2500 | – | > 2500 | > 2500 | – | – | – | –
3 | Cc1cc([C@@H]2c3ccc(O)cc3CC[C@@H]2c2ccc(F)cc2)ccc1N1CCN(CC2(O)CCN(c3ccc(C4=N[C@@H](C)c5nnc(C)n5-c5sc(C)c(C)c54)cc3)CC2)CC1 [III-284] | 50 to 500 | – | 500 to 2500 | 50 to 500 | – | – | – | –
4 | Cc1sc2c(c1C)C(c1ccc(N3CC4(CCC(CN5CCC(c6ccc([C@@H]7c8ccc(O)cc8CC[C@@H]7c7ccccc7)cc6)CC5)CC4)C3)cc1)=N[C@@H](C)c1nnc(C)n1-2 [III-229] | 50 to 500 | – | 500 to 2500 | < 50 | – | – | – | –
5 | Cc1sc2c(c1C)C(c1ccc(C#CC3CC4(CCN(c5ccc([C@H]6c7ccc(O)cc7CC[C@H]6c6ccccc6)cc5)CC4)C3)cc1)=N[C@@H](C)c1nnc(C)n1-2 [III-18] | 500 to 2500 | – | > 2500 | > 2500 | – | – | – | –
6 | Cc1sc2c(c1C)C(c1ccc(N3CCC(CN4CC(COc5ccc([C@@H]6c7ccc(O)cc7CC[C@@H]6c6ccccc6)cc5)C4)CC3)cc1)=N[C@@H](C)c1nnc(C)n1-2 [III-10] | 50 to 500 | – | 50 to 500 | < 50 | – | – | – | –
7 | CC1=C(c2c(F)cc(F)cc2F)[C@@H](c2ccc(OCC(=O)N3CCCC4(CCN(c5ccc(C6=N[C@@H](C)c7nnc(C)n7-c7sc(C)c(C)c76)cc5)C4)C3)cc2)Oc2ccc(O)cc21 (stereo partly drawn) [V-29] | 50 to 500 | – | 50 to 500 | 50 to 500 | – | – | – | –
8 | Cc1sc2c(c1C)C(c1ccc(NCCN3CCN(CCOc4ccc([C@@H]5c6ccc(O)cc6CC[C@@H]5c5ccccc5)cc4)CC3)cc1)=NC(Cc1ncco1)c1nnc(C)n1-2 (stereo partly drawn) [III-29] | 50 to 500 | – | 50 to 500 | < 50 | – | – | – | –
9 | Cc1sc2c(c1C)C(c1ccc(N3CCC(C(=O)N4CC(c5ccc([C@@H]6c7ccc(O)cc7CC[C@@H]6c6ccccc6)cc5)C4)CC3)cc1)=N[C@@H](C)c1nnc(C)n1-2 [III-170] | 50 to 500 | – | 50 to 500 | < 50 | – | – | – | –
10 | Cc1sc2c(c1C)C(c1ccc(N3CCC(O)(CN4CCN(c5ccc([C@H]6c7ccc(C(=O)O)cc7CC[C@H]6c6ccccc6)cc5)CC4)CC3)cc1)=N[C@@H](C)c1nnc(C)n1-2 [III-189] | 50 to 500 | – | > 2500 | > 2500 | – | – | – | –
11 | Cc1sc2c(c1C)C(c1ccc(OCCOCCOc3cc(F)c([C@@H]4c5[nH]c6ccccc6c5C[C@@H](C)N4CC(C)(C)F)c(F)c3)cc1)=N[C@@H](C)c1nnc(C)n1-2 [I-23, (S)-4-(4-(2-(2-(3,5-difluoro-4-((1R,3R)-2-(2-fluoro-2-methylpropyl)-3-methyl-2,3,4,9-tetrahydro-1H-pyrido[3,4-b]indol-1-yl)phenoxy)ethoxy)ethoxy)phenyl)-2,3,6,9-tetramethyl-6H-thieno[3,2-f][1,2,4]triazolo[4,3-a][1,4]diazepine] | 50 to 500 | – | – | – | 500 to 2500 | 500 to 2500 | – | –
12 | Cc1sc2c(c1C)C(c1ccc(N3CCN(CC4CCN(c5ccc([C@@H]6c7ccc(O)cc7CC[C@@H]6c6ccccc6)cc5)CC4)CC3)cc1)=N[C@H](Cc1nccs1)c1nnc(C)n1-2 [III-231] | 500 to 2500 | – | > 2500 | > 2500 | – | – | – | –
13 | Cc1cc([C@H]2c3ccc(O)cc3CC[C@H]2c2ccc(F)cc2)ccc1N1CCN(CC2(O)CCN(c3ccc(C4=N[C@@H](C)c5nnc(C)n5-c5sc(C)c(C)c54)cc3)CC2)CC1 [III-283] | 50 to 500 | – | 500 to 2500 | 50 to 500 | – | – | – | –
14 | Cc1cc([C@H]2c3ccc(O)cc3CC[C@H]2c2ccccc2)c(F)cc1N1CCN(CC2(O)CCN(c3ccc(C4=N[C@@H](C)c5nnc(C)n5-c5sc(C)c(C)c54)cc3)CC2)CC1 [III-288] | 50 to 500 | – | 500 to 2500 | 50 to 500 | – | – | – | –
15 | CC1=C(c2c(F)cc(F)cc2F)C(c2ccc(N3CCC4(CCN(C(=O)Cc5ccc(C6=N[C@@H](C)c7nnc(C)n7-c7sc(C)c(C)c76)cc5)C4)CC3)cc2)Oc2ccc(O)cc21 (stereo partly drawn) [V-18] | 50 to 500 | – | 50 to 500 | 50 to 500 | – | – | – | –
16 | Cc1sc2c(c1C)C(c1ccc(N3CCC(CN4CCN(c5ccc([C@H]6c7ccc(O)cc7CC[C@H]6c6ccccc6)cc5)CC4)CC3)cc1)=N[C@H](Cc1ncco1)c1nnc(C)n1-2 [III-71] | – | > 2500 | – | – | – | – | > 2500 | > 2500

The next lines start with results.

Row | GI50 ([1]; Homo sapiens, MCF7, 144 h) [nM] | GI50 [1] [nM] | SMILES | GI50 [2, 4] [nM] | GI50 [3, 5] [nM] | GI50 [2, 6] [nM] | GI50 [3, 7] [nM] | GI50 ([2]; Table 7-A, T-Rex 293 cells without doxycycline (lacking increased ERα expression), CellTiter-Glo, read-out: (−) Dox GI50) [nM] | GI50 ([3]; Table 7-A, T-Rex 293 cells with doxycycline (increased ERα expression), CellTiter-Glo, read-out: (+) Dox GI50) [nM]
17 | < 50 | – | Cc1sc2c(c1C)C(c1ccc(N3CC4(CCN(CC5CCN(c6ccc([C@@H]7c8ccc(O)cc8CC[C@@H]7c7ccccc7)cc6)CC5)CC4)C3)cc1)=N[C@@H](Cc1ncco1)c1nnc(C)n1-2 [III-161] | 50 to 500 | < 50 | – | – | – | –
18 | < 50 | – | Cc1sc2c(c1C)C(c1ccc(N3CC4(CC(CN5CCN(c6ccc(C7=C(c8ccccc8Cl)CCCc8cc(C(=O)O)ccc87)cc6)CC5)C4)C3)cc1)=N[C@@H](C)c1nnc(C)n1-2 [IV-59] | 500 to 2500 | < 50 | – | – | – | –
19 | < 50 | – | Cc1sc2c(c1C)C(c1ccc(N3CC(CC4(O)CCN(CC5CN(c6ccc([C@@H]7c8ccc(O)cc8CC[C@@H]7c7ccccc7)cc6)C5)CC4)C3)cc1)=N[C@@H](C)c1nnc(C)n1-2 [III-235] | 500 to 2500 | < 50 | – | – | – | –
20 | < 50 | – | Cc1sc2c(c1C)C(c1ccc(N3CC(O)(CC4CCN(c5ccc([C@@H]6c7ccc(O)cc7CC[C@@H]6c6ccccc6)cc5)CC4)C3)cc1)=N[C@@H](C)c1nnc(C)n1-2 [III-159] | < 50 | < 50 | – | – | – | –
21 | < 50 | – | COc1cc(N2CCN(CC3(O)CCN(c4ccc(C5=N[C@@H](C)c6nnc(C)n6-c6sc(C)c(C)c65)cc4)CC3)CC2)ccc1[C@@H]1c2ccc(O)cc2CC[C@@H]1c1ccccc1F (single isomer, unassigned) [III-307] | 500 to 2500 | < 50 | – | – | – | –
22 | < 50 | – | Cc1sc2c(c1C)C(c1ccc(OCCCCC3CCN(CCOc4ccc(C(=O)c5c(-c6ccc(O)cc6)sc6cc(O)ccc56)cc4)CC3)cc1)=N[C@@H](Cc1ncco1)c1nnc(C)n1-2 [I-9, (S)-(6-hydroxy-2-(4-hydroxyphenyl)benzo[b]thiophen-3-yl)(4-(2-(4-(4-(4-(2,3,9-trimethyl-6-(oxazol-2-ylmethyl)-6H-thieno[3,2-f][1,2,4]triazolo[4,3-a][1,4]diazepin-4-yl)phenoxy)butyl)piperidin-1-yl)ethoxy)phenyl)methanone] | – | – | 50 to 500 | < 50 | – | –
23 | < 50 | – | Cc1sc2c(c1C)C(c1ccc(N3CC(CN4CCN(CC5CN(c6ccc(C7=C(c8ccccc8Cl)CCCc8cc(C(=O)O)ccc87)cc6)C5)CC4)C3)cc1)=N[C@@H](C)c1nnc(C)n1-2 [IV-54] | 50 to 500 | < 50 | – | – | – | –
24 | < 50 | – | COc1cc(N2CCN(CC3(O)CCN(c4ccc(C5=N[C@@H](C)c6nnc(C)n6-c6sc(C)c(C)c65)c(F)c4)CC3)CC2)ccc1[C@H]1c2ccc(O)cc2CC[C@H]1c1cccc(F)c1 (single isomer, unassigned) [III-343] | 50 to 500 | 50 to 500 | – | – | – | –
25 | < 50 | – | Cn1cc(-c2cc(C(C)(C)O)ccc2Oc2ccc(N3CC(CC4CCN(c5ccc(C(=O)c6c(-c7ccc(O)cc7)sc7cc(O)ccc67)cc5)CC4)C3)cc2)c2cc[nH]c2c1=O [I-22, 4-(2-(4-(3-((1-(4-(6-hydroxy-2-(4-hydroxyphenyl)benzo[b]thiophene-3-carbonyl)phenyl)piperidin-4-yl)methyl)azetidin-1-yl)phenoxy)-5-(2-hydroxy-propan-2-yl)phenyl)-6-methyl-1,6-dihydro-7H-pyrrolo[2,3-c]pyridin-7-one] | – | – | 50 to 500 | < 50 | – | –
26 | < 50 | – | Cc1sc2c(c1C)C(c1ccc(N3CCC(N4CCN(CCOc5ccc([C@@H]6c7ccc(O)cc7CC[C@@H]6c6ccccc6)cc5)CC4)CC3)cc1)=NC(Cc1ncco1)c1nnc(C)n1-2 (stereo partly drawn) [III-35] | 50 to 500 | < 50 | – | – | – | –
27 | < 50 | – | Cc1sc2c(c1C)C(c1ccc(N3CC(CN4CCC(C(=O)N5CC(c6ccc([C@@H]7c8ccc(O)cc8CC[C@@H]7c7ccccc7)cc6)C5)CC4)C3)cc1)=N[C@@H](Cc1ncco1)c1nnc(C)n1-2 [III-176] | 50 to 500 | < 50 | – | – | – | –
